In this test the target is T1, recombinant human LTA4 hydrolase (rhLTA4H) (Homo sapiens, UniProt P09960).
T1 construct: made in house; host or cells: Spodoptera frugiperda (Sf-9) cells, baculovirus (pFastBac1)
T1 sequence (P09960 1-611): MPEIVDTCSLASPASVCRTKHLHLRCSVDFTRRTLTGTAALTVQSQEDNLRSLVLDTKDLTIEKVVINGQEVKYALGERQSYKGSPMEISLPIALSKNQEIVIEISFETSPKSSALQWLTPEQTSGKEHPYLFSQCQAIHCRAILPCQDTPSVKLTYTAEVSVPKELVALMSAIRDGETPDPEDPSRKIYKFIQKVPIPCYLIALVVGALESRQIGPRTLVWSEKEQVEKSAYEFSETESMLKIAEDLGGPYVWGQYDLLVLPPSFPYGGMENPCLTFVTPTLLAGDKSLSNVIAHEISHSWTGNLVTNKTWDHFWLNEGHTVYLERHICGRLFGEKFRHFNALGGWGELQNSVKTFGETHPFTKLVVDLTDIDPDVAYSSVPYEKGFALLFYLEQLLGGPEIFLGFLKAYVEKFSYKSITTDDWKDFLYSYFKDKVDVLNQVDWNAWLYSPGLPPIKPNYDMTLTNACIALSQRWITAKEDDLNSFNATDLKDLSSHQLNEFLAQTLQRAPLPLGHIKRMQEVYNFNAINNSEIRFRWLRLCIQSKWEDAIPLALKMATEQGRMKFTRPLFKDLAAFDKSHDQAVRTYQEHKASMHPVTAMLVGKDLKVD
In words: Recombinant human LTA4 hydrolase assay for LTA4 hydrolase inhibitor activity. Particulars: rhLTA4H, LTB4 by immunoassay; single determination or average of two or more; mark after value = form tested: ′ free base, ″ hydrochloride, ^ formate; read-out: IC50. The class given is biochemical. On the procedure:
Assay 1: Recombinant Human LTA4 Hydrolase Assay for LTA4 Hydrolase Inhibitor Activity
Compounds of the present invention were tested for LTA4 hydrolase inhibitor activity against recombinant human LTA4 hydrolase (rhLTA4H). Vectors were prepared and used to express rhLTA4H essentially as follows: LTA4 hydrolase encoding DNA was amplified by polymerase chain reaction (PCR) using a human placental cDNA library as a template. […] The amplified 1.9 kb DNA fragment encoding LTA4 hydrolase was isolated and cloned into the pFastBac1 vector (Invitrogen). Recombinant baculovirus was generated as described by the manufacturer, and used to infect Spodoptera frugiperda (Sf-9) cells. […] The purified enzyme solution was adjusted to contain 0.29 mg/mL LTA4 hydrolase, 50 mM Tris (pH 8.0), 150 mM NaCl, 5 mM dithiothreitol, 50% glycerol, and EDTA-free Complete protease inhibitor cocktail (Roche).
LTA4 substrate was prepared from the methyl ester of LTA4 (Cayman Chemical) by treatment with 67 equiv of NaOH under nitrogen at rt for 40 min. The LTA4 substrate in its free acid form was kept frozen at −80° C. until needed. Each compound was diluted to different concentrations in assay buffer (from Assay Designs) containing 10% DMSO. A 25-μL aliquot of each compound dilution was incubated for 10 min at rt with an equal volume of assay buffer containing 10 ng of recombinant human LTA4H. The solution was then adjusted to 200 μL with assay buffer. […] Each reaction was carried out at rt for 30 min. The reaction was stopped by diluting 10 μL of the reaction mixture with 200 μL of assay buffer. LTB4 was quantified in the diluted sample by a commercially available enzyme-linked immunoassay (Cayman Chemical Co.), as recommended by the manufacturer. Positive controls, under essentially identical conditions but without addition of an inhibitor compound, and negative controls, containing all assay components except enzyme, were routinely run in each experiment. IC50 values were determined by nonlinear regression of the activity data at different compound concentrations using Graphpad Prism 4.0, one site binding competition.
The values presented here are the result of a single determination or an average of two or more determinations. Compounds that were not tested are indicated as such by a “NT” designation.

Drawing on US8399465B2, “Compounds with two fused bicyclic heteroaryl moieties as modulators of leukotriene A4 hydrolase” (Janssen Pharmaceutica NV, priority 2009, dated 2013), this text covers IC50 for 28 compounds.

Molecules are shown by their SMILES. Where a name gives a salt, the structure may show the parent alone.

What is called IC50 is the concentration at which inhibition is half-maximal. For `CCOC(=O)C1CCN(CCc2coc3cc(Oc4nc5ccccc5s4)ccc23)CC1` [Example 149, 1-{2-[6-(Benzothiazol-2-yloxy)-benzofuran-3-yl]-ethyl}-piperidine-4-carboxylic acid ethyl ester], the concentration for half-maximal inhibition (IC50) was 0.17 µM.
Regarding `CN1CCC(N(C)Cc2coc3cc(Oc4nc5ncccc5s4)ccc23)CC1` [Example 294, Methyl-(1-methyl-piperidin-4-yl)-[6-(thiazolo[4,5-b]pyridin-2-yloxy)-benzofuran-3-ylmethyl]-amine], the IC50 came out at 0.024 µM.
Under `O=C(c1coc2cc(Oc3nc4ncccc4s3)ccc12)N1CCc2ccccc2C1` [Example 386, (3,4-Dihydro-1H-isoquinolin-2-yl)-[6-(thiazolo[4,5-b]pyridin-2-yloxy)-benzofuran-3-yl]-methanone] stands 0.21 µM; under `NC(=O)C1CCN(CCc2c[nH]c3ccc(Oc4nc5ccccc5s4)cc23)CC1` [Example 75, 1-{2-[5-(Benzothiazol-2-yloxy)-1H-indol-3-yl]-ethyl}-piperidine-4-carboxylic acid amide], 0.714 µM.
Take `O=C(NCc1coc2cc(Oc3nc4ncccc4s3)ccc12)[C@@H]1C[C@@H]2CC[C@H]1C2` (relative stereo) [Example 389, endo-Bicyclo[2.2.1]heptane-2-carboxylic acid [6-(thiazolo[4,5-b]pyridin-2-yloxy)-benzofuran-3-ylmethyl]-amide]: the IC50 was 0.12 µM.
Under `CC(=O)NCc1coc2cc(Oc3nc4ncccc4s3)ccc12` [Example 395, N-[6-(Thiazolo[4,5-b]pyridin-2-yloxy)-benzofuran-3-ylmethyl]-acetamide] stands 0.085 µM; under `c1cnc2nc(Oc3ccc4oc(CN5CC6COCC6C5)cc4c3)sc2c1` (stereo not shown) [Example 113, 2-[2-(Tetrahydro-furo[3,4-c]pyrrol-5-ylmethyl)-benzofuran-5-yloxy]-thiazolo[4,5-b]pyridine], 0.283 µM.
On to `NC(=O)N1C[C@@H]2C[C@H]1CN2Cc1cc2ccc(Oc3nc4ncccc4s3)cc2o1` [Example 117, (1S,4S)-5-[6-(Thiazolo[4,5-b]pyridin-2-yloxy)-benzofuran-2-ylmethyl]-2,5-diaza-bicyclo[2.2.1]heptane-2-carboxylic acid amide], for which the half-maximal inhibitory concentration (IC50) stood at 0.118 µM.
The value for `FC1CCN(Cc2cc3cc(Oc4nc5ncccc5s4)ccc3o2)CC1` [Example 111, 2-[2-(4-Fluoro-piperidin-1-ylmethyl)-benzofuran-5-yloxy]-thiazolo[4,5-b]pyridine] was 0.281 µM.
Under `CC(=O)N[C@H]1C[C@H]2CC[C@@H](C1)N2Cc1cc2cc(Oc3nc4cccnc4s3)ccc2o1` [Example 125, meso-endo-N-{8-[5-(Thiazolo[5,4-b]pyridin-2-yloxy)-benzofuran-2-ylmethyl]-8-aza-bicyclo[3.2.1]oct-3-yl}-acetamide] stands 0.2 µM.
For the compound `c1ccc2sc(Oc3ccc4[nH]cc(CN5CCCC5)c4c3)nc2c1` [Example 9, 2-(3-Pyrrolidin-1-ylmethyl-1H-indol-5-yloxy)-benzothiazole], the IC50 worked out at 0.591 µM.
For `NC(=O)NC1CCN(Cc2cc3ccc(Oc4nc5ncccc5s4)cc3o2)C1` (stereo not shown) [Example 127, 1-(1-{[6-([1,3]Thiazolo[4,5-b]pyridin-2-yloxy)-1-benzofuran-2-yl]methyl}pyrrolidin-3-yl)urea formate], the IC50 is 0.062 µM.
As to `O=C1Cc2cc(C(F)(F)F)ccc2N1Cc1coc2cc(Oc3nc4ncccc4s3)ccc12` [Example 400, 1-[6-(Thiazolo[4,5-b]pyridin-2-yloxy)-benzofuran-3-ylmethyl]-5-trifluoromethyl-1,3-dihydro-indol-2-one], the IC50 is 1.12 µM.
Consider `CCOC(=O)C1CCN(Cc2coc3cc(Oc4nc5ccccc5s4)ccc23)CC1` [Example 223, 1-[6-(Benzothiazol-2-yloxy)-benzofuran-3-ylmethyl]-piperidine-4-carboxylic acid ethyl ester], for which the IC50 was determined as 0.175 µM.
`c1ccc2sc(Oc3ccc4[nH]cc(CN5CCOCC5)c4c3)nc2c1` [Example 11, 2-(3-Morpholin-4-ylmethyl-1H-indol-5-yloxy)-benzothiazole]: the IC50 was 1.4 µM.
In the case of `c1ccc2sc(Oc3ccc4[nH]cc(CN5CCCCC5)c4c3)nc2c1` [Example 10, 2-(3-Piperidin-1-ylmethyl-1H-indol-5-yloxy)-benzothiazole], the IC50 came to 0.415 µM.
Under `c1ccc2sc(Oc3ccc4[nH]cc(CCN5CCCCC5)c4c3)nc2c1` [Example 74, 2-[3-(2-Piperidin-1-yl-ethyl)-1H-indol-5-yloxy]-benzothiazole] stands 2.03 µM.
Turning to `O=C(C1CCN(Cc2cc3ccc(Oc4nc5ncccc5s4)cc3o2)CC1)N1CCCC1` [Example 205, Pyrrolidin-1-yl-{1-[6-(thiazolo[4,5-b]pyridin-2-yloxy)-benzofuran-2-ylmethyl]-piperidin-4-yl}-methanone], the 50% inhibitory concentration (IC50) came to 0.12 µM.
On to `c1ccc2c(c1)CC(NCc1coc3cc(Oc4nc5ncccc5s4)ccc13)C2` [Example 320, Indan-2-yl-[6-(thiazolo[4,5-b]pyridin-2-yloxy)-benzofuran-3-ylmethyl]-amine formate], for which the IC50 was determined as 0.015 µM.
The value for `CC(=O)N(CC(=O)O)[C@H]1C[C@H]2CC[C@@H](C1)N2Cc1c[nH]c2cc(Oc3nc4ccccc4s3)ccc12` [Example 48, meso-endo-(Acetyl-{8-[6-(benzothiazol-2-yloxy)-1H-indol-3-ylmethyl]-8-aza-bicyclo[3.2.1]oct-3-yl}-amino)-acetic acid] was 0.679 µM; that for `Clc1cnc2nc(Oc3ccc4c(CN5CCOCC5)c[nH]c4c3)sc2c1` [Example 59, 6-Chloro-2-(3-morpholin-4-ylmethyl-1H-indol-6-yloxy)-thiazolo[4,5-b]pyridine] was 0.111 µM.
On to `c1ccc2sc(Oc3ccc4cc(CN5CCOCC5)sc4c3)nc2c1` [Example 133, (2-Morpholin-4-ylmethyl-benzo[b]thiophen-6-yloxy)-benzothiazole], for which the IC50 stood at 0.473 µM.
Under `CC(=O)N[C@H]1C[C@H]2CC[C@@H](C1)N2Cc1cc2ccc(Oc3nc4cccnc4s3)cc2o1` [Example 126, meso-endo-N-{8-[6-(Thiazolo[5,4-b]pyridin-2-yloxy)-benzofuran-2-ylmethyl]-8-aza-bicyclo[3.2.1]oct-3-yl}-acetamide] stands 0.61 µM.
Consider `Cn1cc(CN2CCOCC2)c2ccc(Oc3nc4ccccc4s3)cc21` [Example 61, 2-(1-Methyl-3-morpholin-4-ylmethyl-1H-indol-6-yloxy)-benzothiazole], for which the IC50 turned out to be 0.61 µM.
On to `NC(=O)N1C[C@@H]2C[C@H]1CN2Cc1cc2ncc(Oc3nc4ncccc4s3)cc2o1` [Example 337, (1S,4S)-5-[6-(Thiazolo[4,5-b]pyridin-2-yloxy)-furo[3,2-b]pyridin-2-ylmethyl]-2,5-diaza-bicyclo[2.2.1]heptane-2-carboxylic acid amide formate], for which the IC50 came out at 0.27 µM.
The value for `CC(=O)N1C[C@H]2CC[C@@H](C1)N2Cc1cc2ncc(Oc3nc4ncccc4s3)cc2o1` [Example 338, meso-1-{8-[6-(Thiazolo[4,5-b]pyridin-2-yloxy)-furo[3,2-b]pyridin-2-ylmethyl]-3,8-diaza-bicyclo[3.2.1]oct-3-yl}-ethanone formate] was 0.45 µM.
For the compound `CCn1c(CN2CCOCC2)cc2cc(Oc3nc4ccccc4s3)ccc21` [Example 63, 2-(1-Ethyl-2-morpholin-4-ylmethyl-1H-indol-5-yloxy)-benzothiazole], the IC50 stood at 1.64 µM.
In the case of `CC(=O)N1C[C@@H]2C[C@H]1CN2Cc1coc2cc(Oc3nc4cccnc4s3)ccc12` [Example 221, (1S,4S)-1-{5-[6-(Thiazolo[5,4-b]pyridin-2-yloxy)-benzofuran-3-ylmethyl]-2,5-diaza-bicyclo[2.2.1]hept-2-yl}-ethanone], the IC50 worked out at 0.227 µM.
